According to patent US20180064739A1, “NUTRITIONAL COMPOSITION WITH HUMAN MILK OLIGOSACCHARIDES AND USES THEREOF” (Mead Johnson Nutrition Company, priority 2016, published 2018):

Experiments:
[1] = test system: ganglioside-bound sialic acid in corpus callosum and cerebellum; test: Ganglioside-bound sialic acid in brain regions of suckling pigs fed sialyllactose diets (periodic acid-resorcinol reaction); assay type: in vivo; conditions: diet supplemented with 4 g/L, fed 21 days
Text: This study sought to determine whether administration of certain isomers of sialyllactose could increase or enrich sialic acid in the brain tissues of neonatal pigs. Indeed, accumulation of sialic acid in the brain during neonatal development is associated with increased cognitive functioning. Further, sialic acid (SA) is a key component of human milk oligosaccharides and neural tissues. SA accumulates in the brain rapidly during neonatal development and is thought to play an important role in brain development. […] Piglets readily consumed the formula, grew at normal rates and remained clinically healthy throughout the experiment.
After 21 days, the pigs were euthanized and the left hemisphere of the brain was dissected into cerebrum, cerebellum, corpus callosum, and hippocampus regions. […] The lipid- and protein-bound sialic acid contents from each sample were determined using a modified periodic acid-resorcinol reaction. Free sialic acid was calculated by difference. Briefly, the sialic from the protein and ganglioside fractions was first oxidized using the periodic acid reagent, which released the oxidized sialic-aldehyde derivative quantitatively. The released sialic derivative was measured colorimetrically using the resorcinol-HCl reagent.

[2] = test system: microbial taxa of the proximal and distal colon; test: Gut microbiome of suckling pigs, 16S rDNA Illumina sequencing of colon digesta; assay type: in vivo; conditions: 21 days
Text: This study sought to determine whether administration of certain isomers of sialyllactose could modulate the microbiome of developing neonatal pigs, i.e. suckling pigs. Indeed, selectively promoting beneficial gut microbiota in preterm and term infants, toddlers, and children may provide long-term health benefits, including neuronal benefits. Briefly, day-old pigs were randomized among 6 diets; (1) control diet, (2) diet supplemented with 2 g/L of 3′-sialyllactose, (3) diet supplemented with 4 g/L of 3′-sialyllactose, (4) diet supplemented with 2 g/L of 6′-sialyllactose, (5) diet supplement with 4 g/L of 6′-sialyllactose, and (6) 2 g/L PDX and 2 g/L GOS. The pigs were fed three times per day for 21 days.
Pigs were euthanized and intestinal digesta were analyzed from the proximal and distal colon. The microbiome analysis was performed via 16S rDNA Illumina sequencing. Briefly, DNA was extracted from digesta using the UltraClean Tissue and Cells DNA Isolation Kit (MoBio). The DNA was then cleaned using PowerClean DNA Clean-Up Kit (ThermoFisher Scientific, Waltham, Mass.) and quantified with the Qubit Quant-iT dsDNA Broad- Range Kit (MoBio Laboratories, Carlsbad, Calif.). The V4 region of 16S ribosomal RNA was amplified using primers 515F (5#-GTGCCAGCMGCCGCGGTAA-3#) and 806R (5#-[…]-3#). Resulting PCR products were sequenced using Illumina MiSeq paired-end technology. High-quality sequences were searched against Greengenes database and then clustered at 97% sequence identity to form operational taxonomic units (OTUs) and assigned taxonomic classification. Similarity between microbial communities was assessed using the Bray-Curtis distance metric and then visualized using principal coordinates analysis. To test the community differences between microbiota between all groups of samples, we used the Adonis function. Because all genera were considered in the test, the Bonferroni multiple comparison correction was applied.

[3] = test system: heat shock protein 72 (Hsp72); test: Liver Hsp72 after inescapable tail shock stress in diet-fed rats; assay type: in vivo, male F344 rats; conditions: diet for 4 weeks, after stressor exposure
Text: This study sought to determine whether the administration of PDX, GOS, and lactoferrin could modulate stress-evoked responses and the concentration of inflammatory cytokines and chemokines in blood or tissue. Briefly, male F344 rats were pair-housed in a barrier facility and fed experimental or control diet for 4 weeks. The diet formulations were as follows: (1) control, (2) diet supplemented with lactoferrin (LAC), (3) diet supplemented with GOS and PDX, and (4) diet supplemented with GOS, PDX, and Lactoferrin.
The rats were pair housed in standard Nalgene Plexiglas cages (45 cm×25.2 cm×14.7 cm) and had ad libitum access to food and water for the duration of the experimental procedures. Food consumption was monitored three times per week by weighing the chow pellets within each food hopper. Following 4 weeks on the diets, rats were exposed to inescapable (IS) or remained within their home cage undisturbed (home cage controls; HCC). IS consisted of 100, 1.5 mA inescapable tail shocks administered at variable intervals over a period of approximately 2 hours. Rats exposed to IS were restrained in Broome-style Plexiglas tubes (23.4 cm in length and 7.0 cm in diameter) with their tails exposed for electrode attachment.
Furthermore, in the same study heat shock protein 72 (Hsp72) was measured in the liver. […]

[4] = supplemented diet, colon digesta

**Q.** How did the “increase of ganglioside-bound sialic acid in the cerebellum compared to control pigs” value [1] turn out when `CC(=O)N[C@H]1[C@H]([C@H](O)[C@H](O)CO)O[C@@](O[C@H]2[C@@H](O)[C@@H](CO)O[C@@H](O[C@H]3[C@H](O)[C@@H](O)C(O)O[C@@H]3CO)[C@@H]2O)(C(=O)O)C[C@@H]1O` (stereo partly shown) [3′-sialyllactose] was run?
**A.** over 10%

**Q.** For `CC(=O)N[C@H]1[C@H]([C@H](O)[C@H](O)CO)O[C@@](OC[C@H]2O[C@@H](O[C@H]3[C@H](O)[C@@H](O)[C@H](O)O[C@@H]3CO)[C@H](O)[C@@H](O)[C@H]2O)(C(=O)O)C[C@@H]1O` [6′-sialyllactose], which “bacterial taxa of Collinsella aerofaciens, Ruminococcus, Faecalibacterium and Prevotella” value ([2]; diet supplemented with 4 g/L, compared to the control diet) is on record?
**A.** increase

**Q.** And the “microbiome difference versus control diet” value ([2]; diet supplemented with 4 g/L, proximal and distal colon)?
**A.** statistically significant microbiome difference

**Q.** What about the “bacterial taxa belonging to the phyla Actinobacteria and Bacteroidetes” value ([2]; diet supplemented with 4 g/L, versus control diet) of the same molecule?
**A.** statistically significant increase

**Q.** What about the “taxa of the family Enterobacteriaceae and Enterococaceae, fold lower than in the control diet” value [2, 4] of the same molecule?
**A.** 2.3 fold

**Q.** And the “taxa of the family Lachnospiraceael and order Lactobacillales, fold lower than in the control diet” value [2, 4]?
**A.** 4 fold

**Q.** With lactoferrin as the molecule, how does the “effect of stress on liver Hsp72 expression” value [3] read?
**A.** reduction in the effect of stress
